Assay results: patent publication US20240398919A1, “EPITOPE PEPTIDE FOR TUMOR-ASSOCIATED ANTIGEN AND USE THEREOF” (SHENZHEN INSTITUTES OF ADVANCEDTECHNOLOGY CHINESE ACADEMY …, priority 2023, published 2024)
“Also recorded” adds a separate entry of the source.

How the values were obtained:
[1] = system: splenocytes (IFN-γ secreting T cells); test: IFN-γ ELISPOT of splenocytes co-cultured with peptides; assay type: cell-based; conditions: splenocytes of immunized mice, 5×10^5/well, co-cultured with peptide (10 μg) for 20 h; vs DPBS and CpG groups
Protocol: Isolate splenocytes: Spleens were gently mashed and filtered through a 70-μm strainer (Falcon, Corning, Germany), and then collected into a 15 mL centrifuge tube. After adding 1 mL erythrocyte lysis buffer and washing in PBS, cells were collected for ELISPOT assay.
Enzyme-linked immunospot assay (ELISPOT): splenocytes were isolated according to the above method and were co-cultured with different polypeptides (10 μg) at 5×10^5/well for 20 h. The size and number of IFN-γ positive spots were calculated by using Adobe Photoshop CS6 software.
FIGS. 5A and 5B is a graph showing the detection results of the ability of specific T cells to secrete IFN-γ induced by tumor antigen epitope peptides. In FIGS. 5A and 5B, the experimental mice were euthanized, the monocytes derived from spleens were co-cultured with different peptides for 20 h to detect the secretion of IFN-γ by ELISPOT assay according to the manufacturer's instructions. Spleens were gently mashed and monocytes were isolated using a lymphocyte separation medium. The monocytes were incubated into wells of an ELISPOT plate and stimulated synchronously. The cells were incubated in an incubator at 37° C. and cytokines were captured. The number of T cells specifically secreting IFN-γ in splenocytes of the immunized mice can be detected by detecting the formation of spots.

[2] = system: MB49 bladder cancer cells; test: Tumor growth inhibition by peptide vaccines in the mouse bladder cancer treatment model; assay type: in vivo, C57BL/6 mice; conditions: 3×10^5 MB49 cells s.c. on Day 0; peptide 100 μg/100 μL + CpG ODN 1826 10 μM s.c. on day 3, 6, 9, 12, 15, 18, 21; tumor size every 3 days; vs DPBS and CpG groups
Protocol: Cancer cells and animal model: MB49 bladder cancer cells were grown in DMEM containing 10% FBS (Fetal Bovine Serum, Gibco, 10099141C) and 1% PS (Penicillin-Streptomycin-Glutamine, Gibco, 10378016). 3×10^5 MB49 cancer cells were resuspended in 100 μL of DPBS and injected subcutaneously into a lower back of male C57BL/6 mice (6-8 weeks old), respectively to construct a mouse bladder cancer treatment model. After the initial implantation of tumors, the mice developed tumors around 5 days, and after tumor formation, the tumor growth was monitored every other 3 days, and a long diameter (a) and a short diameter (b) of the tumor were measured with a vernier caliper, and the size of each solid tumor was calculated according to the solid tumor size V=axbxb/2, and a tumor growth curve was plotted. […]
FIG. 2 is a graph showing the detection results of a tumor growth inhibition assay of antigenic epitope peptides derived from various genes tested. […] The tumor size in the mice was detected every 3 days.
FIG. 3 is a graph showing the detection results of testing the inhibitory effect of mixed peptide vaccines on tumor growth after vaccines are prepared by mixing the effective antigenic epitope peptides. […] The tumor size in the mice was detected every 3 days. […]

FYMMPVNSEVM [NUF-2]
Specific T-cell response (IFN-γ secretion, ELISPOT) [1]: can strongly stimulate the immune response of specific T cells; also recorded: significant T-cell responses; also recorded: strongest T-cell response | Inhibition of tumor growth (tumor size) [2]: can effectively inhibit the growth of bladder cancer; also recorded: significantly inhibited the growth of bladder cancer; also recorded: most significant tumor-inhibiting effects

VHLAKSLPL [CENPM]
Specific T-cell response (IFN-γ secretion, ELISPOT) [1]: can strongly stimulate the immune response of specific T cells; also recorded: significant T-cell responses; also recorded: can induce T-cell responses | Inhibition of tumor growth (tumor size) [2]: partial tumor growth inhibitory effect; also recorded: did not show significant tumor inhibition; also recorded: does not show strong anti-tumor effects
